Data from PMC10897374, “Synthetic angiotensin II peptide derivatives confer protection against cerebral and severe non-cerebral malaria in murine models” (Scientific Reports, 2024).
Where a SMILES comes first, the peptide text is derived from it. Bridges are numbered along the chain shown (N, C = ends). Where no end group is shown, it is not given here.

Assays:
mouse muscle tissue = settings: cited from earlier work
Plasmodium berghei ANKA [1] = assay: Experimental cerebral malaria (ECM) model: parasitemia and survival; type: in vivo, C57BL/6 mice
Description: Six- to eight-week-old male C57BL/6 mice were provided by the Oswaldo Cruz Foundation (FIOCRUZ—Rio de Janeiro, Brazil). The mice were housed in appropriate cages with free access to food and fresh water in a room with controlled temperature (22–24 °C) with a light/dark cycle of 12 h.
(§1) A cryopreserved sample of erythrocytes infected with P. berghei ANKA (kindly provided by Dr. Leonardo J. Carvalho, La Jolla University, San Diego, CA) was thawed and 1 × 10^6 erythrocytes infected with P. berghei ANKA were injected intraperitoneally (i.p.) in the C57BL/6 mice. Parasitemia was monitored from the prepatent period until parasitemia was sufficient for infection of the experimental animal groups (7 male mice per group), i.e., 5–8% parasitemia per mL of blood (injection of 200 µL in each mouse).
The same protocol was performed with 6- to 8-week-old BALB/c mice also provided from FIOCRUZ (8 male mice per group). Each group was treated one hour before infection (day zero) i.p. at 100 ng Kg^−1 for five consecutive days. The dose used was similar to that used for Ang II in in vivo studies, as described by Gallego-Delgado et al., 2015. […] After 3 days, parasitemia was evaluated by blood smear from a droplet of blood collected from the lateral tail vein of each animal and colored with the hematological Diff-Quick® kit. The survival of the animals was also monitored daily. […]

Plasmodium berghei ANKA [2] = assay: Severe non-cerebral malaria model: parasitemia and survival; type: in vivo; settings: BALB/c mice
Description: as §1
The same protocol was performed with 6- to 8-week-old BALB/c mice also provided from FIOCRUZ (8 male mice per group). […] After 3 days, parasitemia was evaluated by blood smear from a droplet of blood collected from the lateral tail vein of each animal and colored with the hematological Diff-Quick® kit. The survival of the animals was also monitored daily. […]
C57BL/6 (cerebral malaria model) and BALB/c (non-cerebral malaria model) mice received a single daily dose (100 ng Kg^−1 min^−1) of Ang II (brown line), Ang II-SS (orange line), VIPF (blue line), or vehicle (PBS, black line) for 5 days. […] Parasitemia was monitored by Diff-Quick stained blood smears from day 3 to day 7 for C57BL/6 mice (A) and from day 3 to day 9 for BALB/c mice (B). Percentage of survival for C57BL/6 mice (C) and BALB/c mice (D) mice was monitored daily starting on day 6 p.i. […]

[3] = test system: C57BL/6 mice infected with P. berghei ANKA; assay: SHIRPA behavioral tests in the ECM model; type: in vivo, mouse; settings: day 5 post-infection, difference of scores before and after infection, vs vehicle (PBS)
Description: C57BL/6 mice were used for the experimental cerebral malaria model, and the assays were defined by the presence of at least two of the following clinical signs of neurological involvement: ataxia, paralysis of the limbs, poor correction reflex, convulsions, and coma. A series of SHIRPA tests (SmithKline Beecham, Harwell, Imperial College, Royal London Hospital, phenotype assessment) was used to evaluate behavioral, motor, and neurological changes during the development of the P. berghei infection. Tests aimed at evaluating cognitive and behavioral parameters were selected to assess brain impairment of the mice. The tests described below were initially performed on animals not yet infected at day 0. Next, the mice were treated and infected as described earlier. Five days after infection, the tests were repeated and the results were expressed as the difference between the sum of the scores before and after infection with P. berghei. […]
After five minutes of the test described above, the animals were transferred to the arena without being touched. The observation of the immediate reactions to the new environment was recorded for thirty seconds and a score was assigned.
While mice were still in the arena, the number of squares of 11 cm^2 of the arena that the animal stepped into with four legs at the same time was quantified for thirty seconds. […]

Plasmodium = settings: same mouse model (ECM), infected mice treated with the ACE inhibitor; cited from earlier work

Compound	contractile activity (mouse muscle tissue)	mouse survival (Plasmodium berghei ANKA [1]; C57BL/6 mice (ECM), 100 ng Kg−1 min−1 i.p. daily for 5 days, Kaplan–Meier, log rank vs vehicle, n = 8)	parasitemia level at day 7 p.i. (Plasmodium berghei ANKA [1]; C57BL/6 mice, 100 ng Kg−1 min−1 i.p. daily until day 4 p.i., first dose 1 h before infection, blood smear, vehicle group reached 18% parasitemia)	mouse survival (Plasmodium berghei ANKA [2]; 100 ng Kg−1 min−1 i.p. daily for 5 days, Kaplan–Meier, log rank vs vehicle, n = 8)	effect on parasitemia (Plasmodium berghei ANKA [2]; 100 ng Kg−1 min−1 i.p. daily until day 4 p.i., blood smear day 3 to 9 p.i., especially at day 9 p.i., vs vehicle)	SHIRPA behavioral score [3]	effect on parasitemia (Plasmodium)
CC[C@H](C)[C@H](NC(=O)[C@@H](N)C(C)C)C(=O)N1CCC[C@H]1C(=O)N[C@@H](Cc1ccccc1)C(=O)O [VIPF] (H-VIPF-OH)	did not elicit significant contractile activity						
CDRVYIHPFC (disulfide 1-10 (inferred)) [Ang II-SS, disulfide bridge-constrained derivative of Ang II]	did not elicit significant contractile activity	increased mouse survival	approximately 10%	increased mouse survival	reduced parasitemia	reduced the SHIRPA behavioral score	
C[C@H](CS)C(=O)N1CCC[C@H]1C(=O)O [captopril]							discrete but significant reduction in parasitemia
